target: human PDE4D catalytic domain (UniProt no. Q08499) (Homo sapiens (Human), UniProt Q08499); test: PDE4 assay (TR-FRET, FAM-cAMP cleavage); type: biochemical; details: human PDE4D catalytic domain; molar concentration giving 50% inhibition of substrate cleavage; read-out: PDE4 IC50 range
Description: The human PDE4D catalytic domain (UniProt no. Q08499 [[…]]) was incubated with a mixture of non-labelled cAMP (cyclic adenosine monophosphate) and fluorescein amidite (FAM) conjugated cAMP and titrated test or reference compound. Following brief incubation the enzymatic reaction was stopped by addition of binding buffer containing nanoparticles with immobilized trivalent metal ions capable of binding 1) AMP phospho groups and 2) terbium (Tb) donor fluorophores. Subsequent excitation of the Tb donor triggers time-resolved FRET to adjacent FAM acceptor molecules resulting in light emission. In the presence of a PDE4 inhibitor, AMP generation was reduced resulting in a lower fluorescence signal. The cAMP phosphodiester is not bound by the detection system.
The results were calculated as the molar concentrations resulting in 50% inhibition of the substrate cleavage compared to controls samples, and are expressed as a range of IC50 (nM).

Chain of human PDE4D catalytic domain (Q08499 380-740 limits assumed): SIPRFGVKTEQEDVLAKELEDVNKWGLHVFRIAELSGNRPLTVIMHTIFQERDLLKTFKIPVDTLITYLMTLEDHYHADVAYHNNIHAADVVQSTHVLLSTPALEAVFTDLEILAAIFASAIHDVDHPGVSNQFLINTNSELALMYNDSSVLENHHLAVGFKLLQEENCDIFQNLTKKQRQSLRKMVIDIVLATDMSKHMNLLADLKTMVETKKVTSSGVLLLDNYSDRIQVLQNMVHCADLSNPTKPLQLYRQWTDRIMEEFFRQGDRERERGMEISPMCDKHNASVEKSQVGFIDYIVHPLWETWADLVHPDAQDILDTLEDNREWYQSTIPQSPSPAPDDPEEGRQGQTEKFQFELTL

`CCc1nn(C[C@@H](C)COC(=O)c2cc(F)cc(C#N)c2)c2c1C(=O)NCC1(CCOCC1)C2` [Example 182, [(2R)-3-(3-ethyl-4-oxo-spiro[6,8-dihydro-5H-pyrazolo[4,3-c]azepine-7,4′-tetrahydropyran]-1-yl)-2-methyl-propyl] 3-cyano-5-fluoro-benzoate] and `CCc1nn(C[C@@H](C)COC(=O)c2cc(F)ccc2Cl)c2c1C(=O)NCC1(CCOCC1)C2` [Example 200, [(2R)-3-(3-ethyl-4-oxo-spiro[6,8-dihydro-5H-pyrazolo[4,3-c]azepine-7,4′-tetrahydropyran]-1-yl)-2-methyl-propyl] 2-chloro-5-fluoro-benzoate] cannot be ordered by IC50: under 100 nM for the first, under 100 nM for the second.

`CCc1nn(CCCOC(=O)c2cccc(F)c2C)c2c1C(=O)NCC1(CCOCC1)C2` [Example 36, 3-(3-ethyl-4-oxo-spiro[6,8-dihydro-5H-pyrazolo[4,3-c]azepine-7,4′-tetrahydropyran]-1-yl)propyl 3-fluoro-2-methyl-benzoate] and `CCc1nn(CCCOC(=O)c2cc(F)ccc2C)c2c1C(=O)NCC1(CCOCC1)C2` [Example 34, 3-(3-ethyl-4-oxo-spiro[6,8-dihydro-5H-pyrazolo[4,3-c]azepine-7,4′-tetrahydropyran]-1-yl)propyl 5-fluoro-2-methyl-benzoate] cannot be ordered by IC50: under 100 nM for the first, under 100 nM for the second.

`CCc1nn(CCCOC(=O)c2cc(F)cc(F)c2)c2c1C(=O)NCC1(CCOCC1)C2` [Example 43, 3-(3-ethyl-4-oxo-spiro[6,8-dihydro-5H-pyrazolo[4,3-c]azepine-7,4′-tetrahydropyran]-1-yl)propyl 3,5-difluorobenzoate] and `CCc1nn(CCCOC(=O)c2cc(F)ccc2F)c2c1C(=O)NCC1(CCOCC1)C2` [Example 47, 3-(3-ethyl-4-oxo-spiro[6,8-dihydro-5H-pyrazolo[4,3-c]azepine-7,4′-tetrahydropyran]-1-yl)propyl 2,5-difluorobenzoate] cannot be ordered by IC50: under 100 nM for the first, under 100 nM for the second.

`CCc1nn(CCCOC(=O)c2cc(OC)ccc2F)c2c1C(=O)NCC1(CCOCC1)C2` [Example 67, 3-(3-ethyl-4-oxo-spiro[6,8-dihydro-5H-pyrazolo[4,3-c]azepine-7,4′-tetrahydropyran]-1-yl)propyl 2-fluoro-5-methoxy-benzoate] and `CCc1nn(CCCOC(=O)c2ccc(Cl)cc2F)c2c1C(=O)NCC1(CCOCC1)C2` [Example 85, 3-(3-ethyl-4-oxo-spiro[6,8-dihydro-5H-pyrazolo[4,3-c]azepine-7,4′-tetrahydropyran]-1-yl)propyl 4-chloro-2-fluoro-benzoate] cannot be ordered by IC50: under 100 nM for the first, under 100 nM for the second.

`CCc1nn(C[C@@H](C)COC(=O)c2c(C)cccc2F)c2c1C(=O)NCC1(CCOCC1)C2` [Example 174, [(2R)-3-(3-ethyl-4-oxo-spiro[6,8-dihydro-5H-pyrazolo[4,3-c]azepine-7,4′-tetrahydropyran]-1-yl)-2-methyl-propyl] 2-fluoro-6-methyl-benzoate] and `CCc1nn(C[C@@H](C)COC(=O)c2cccc(F)c2OC)c2c1C(=O)NCC1(CCOCC1)C2` [Example 192, [(2R)-3-(3-ethyl-4-oxo-spiro[6,8-dihydro-5H-pyrazolo[4,3-c]azepine-7,4′-tetrahydropyran]-1-yl)-2-methyl-propyl] 3-fluoro-2-methoxy-benzoate] cannot be ordered by IC50: under 100 nM for the first, under 100 nM for the second.

First: CCc1nn(CCCOC(=O)c2cccc(C(=O)N3CCOCC3)c2)c2c1C(=O)NCC1(CCOCC1)C2 [Example 157, 3-(3-ethyl-4-oxo-spiro[6,8-dihydro-5H-pyrazolo[4,3-c]azepine-7,4′-tetrahydropyran]-1-yl)propyl 3-(morpholine-4-carbonyl)benzoate]
Second: CCc1nn(CCCOC(=O)c2ccc(C(=O)N3CCN(C)CC3)cc2)c2c1C(=O)NCC1(CCOCC1)C2 [Example 148, 3-(3-ethyl-4-oxo-spiro[6,8-dihydro-5H-pyrazolo[4,3-c]azepine-7,4′-tetrahydropyran]-1-yl)propyl 4-(4-methylpiperazine-1-carbonyl)benzoate]
The IC50 of the first is lower: under 100 nM for the first, 100 to 500 nM for the second.

`CCc1nn(CCCOC(=O)c2ccc(C)cc2OC)c2c1C(=O)NCC1(CCOCC1)C2` [Example 60, 3-(3-ethyl-4-oxo-spiro[6,8-dihydro-5H-pyrazolo[4,3-c]azepine-7,4′-tetrahydropyran]-1-yl)propyl 2-methoxy-4-methyl-benzoate] and `CCc1nn(CCCOC(=O)c2ccc(OC)c(Cl)c2)c2c1C(=O)NCC1(CCOCC1)C2` [Example 86, 3-(3-ethyl-4-oxo-spiro[6,8-dihydro-5H-pyrazolo[4,3-c]azepine-7,4′-tetrahydropyran]-1-yl)propyl 3-chloro-4-methoxy-benzoate] cannot be ordered by IC50: under 100 nM for the first, under 100 nM for the second.

`CCc1nn(CCCOC(=O)c2cc(F)ccc2Cl)c2c1C(=O)NCC1(CCOCC1)C2` [Example 82, 3-(3-ethyl-4-oxo-spiro[6,8-dihydro-5H-pyrazolo[4,3-c]azepine-7,4′-tetrahydropyran]-1-yl)propyl 2-chloro-5-fluoro-benzoate] and `CCc1nn(CCCOC(=O)c2ccccc2C)c2c1C(=O)NCC1(CCOCC1)C2` [Example 16, 3-(3-ethyl-4-oxo-spiro[6,8-dihydro-5H-pyrazolo[4,3-c]azepine-7,4′-tetrahydropyran]-1-yl)propyl 2-methylbenzoate] cannot be ordered by IC50: under 100 nM for the first, under 100 nM for the second.

`CCc1nn(CCCOC(=O)c2ccccc2O)c2c1C(=O)NCC1(CCOCC1)C2` [Example 17, 3-(3-ethyl-4-oxo-spiro[6,8-dihydro-5H-pyrazolo[4,3-c]azepine-7,4′-tetrahydropyran]-1-yl)propyl 2-hydroxybenzoate] and `CCc1nn(CCCOC(=O)c2ccc(OC)c(F)c2)c2c1C(=O)NCC1(CCOCC1)C2` [Example 62, 3-(3-ethyl-4-oxo-spiro[6,8-dihydro-5H-pyrazolo[4,3-c]azepine-7,4′-tetrahydropyran]-1-yl)propyl 3-fluoro-4-methoxy-benzoate] cannot be ordered by IC50: under 100 nM for the first, under 100 nM for the second.

`CCc1nn(C[C@@H](C)COC(=O)c2ccc(OC)cc2F)c2c1C(=O)NCC1(CCOCC1)C2` [Example 189, [(2R)-3-(3-ethyl-4-oxo-spiro[6,8-dihydro-5H-pyrazolo[4,3-c]azepine-7,4′-tetrahydropyran]-1-yl)-2-methyl-propyl] 2-fluoro-4-methoxy-benzoate] and `CCc1nn(C[C@@H](C)COC(=O)c2cc(OC)ccc2F)c2c1C(=O)NCC1(CCOCC1)C2` [Example 191, [(2R)-3-(3-ethyl-4-oxo-spiro[6,8-dihydro-5H-pyrazolo[4,3-c]azepine-7,4′-tetrahydropyran]-1-yl)-2-methyl-propyl] 2-fluoro-5-methoxy-benzoate] cannot be ordered by IC50: under 100 nM for the first, under 100 nM for the second.

Compared with `CCc1nn(CCCOC(=O)COC(C)C)c2c1C(=O)NCC1(CCOCC1)C2` [Example 12, 3-(3-ethyl-4-oxo-spiro[6,8-dihydro-5H-pyrazolo[4,3-c]azepine-7,4′-tetrahydropyran]-1-yl)propyl 2-isopropoxyacetate], `CCc1nn(CCCOC(=O)c2ccc(C)c(C(F)(F)F)c2)c2c1C(=O)NCC1(CCOCC1)C2` [Example 103, 3-(3-ethyl-4-oxo-spiro[6,8-dihydro-5H-pyrazolo[4,3-c]azepine-7,4′-tetrahydropyran]-1-yl)propyl 4-methyl-3-(trifluoromethyl)benzoate] is lower in IC50: over 500 nM for the first, under 100 nM for the second.

For `CCc1nn(C[C@@H](C)COC(=O)c2ccc(S(C)(=O)=O)cc2)c2c1C(=O)NCC1(CCOCC1)C2` [Example 5, [(2R)-3-(3-ethyl-4-oxo-spiro[6,8-dihydro-5H-pyrazolo[4,3-c]azepine-7,4′-tetrahydro-pyran]-1-yl)-2-methyl-propyl] 4-methylsulfonylbenzoate], the IC50 was under 100 nM.

same assay, conditions: read-out: PDE4 IC50 range

`CCc1nn(C[C@@H](C)COC(=O)c2cccc(C(=O)N3CCOCC3)c2)c2c1C(=O)NCC1(CCOCC1)C2` [Example 271, [(2R)-3-(3-ethyl-4-oxo-spiro[6,8-dihydro-5H-pyrazolo[4,3-c]azepine-7,4′-tetrahydropyran]-1-yl)-2-methyl-propyl] 3-(morpholine-4-carbonyl)benzoate] and `CCc1nn(C[C@H](C)COC(=O)c2cccc(OC)c2)c2c1C(=O)NCC1(CCOCC1)C2` [Example 278, [(2S)-3-(3-ethyl-4-oxo-spiro[6,8-dihydro-5H-pyrazolo[4,3-c]azepine-7,4′-tetrahydropyran]-1-yl)-2-methyl-propyl] 3-methoxybenzoate] cannot be ordered by IC50: under 100 nM for the first, under 100 nM for the second.

`CCc1nn(CC(C)(C)COC(=O)c2cccc(C(C)=O)c2)c2c1C(=O)NCC1(CCOCC1)C2` [Example 296, [3-(3-ethyl-4-oxo-spiro[6,8-dihydro-5H-pyrazolo[4,3-c]azepine-7,4′-tetrahydropyran]-1-yl)-2,2-dimethyl-propyl] 3-acetylbenzoate] and `CCc1nn(CC(C)(C)COC(=O)c2ccc(C(=O)NC)cc2)c2c1C(=O)NCC1(CCOCC1)C2` [Example 329, [3-(3-ethyl-4-oxo-spiro[6,8-dihydro-5H-pyrazolo[4,3-c]azepine-7,4′-tetrahydropyran]-1-yl)-2,2-dimethyl-propyl] 4-(methylcarbamoyl)benzoate] cannot be ordered by IC50: under 100 nM for the first, under 100 nM for the second.

`CCc1nn(CC2(COC(=O)c3ccccc3)COC2)c2c1C(=O)NCC1(CCOCC1)C2` [Example 356, [3-[(3-ethyl-4-oxo-spiro[6,8-dihydro-5H-pyrazolo[4,3-c]azepine-7,4′-tetrahydropyran]-1-yl)methyl]oxetan-3-yl]methyl benzoate] and `CCc1nn(C(C)CCOC(=O)c2ccccc2)c2c1C(=O)NCC1(CCOCC1)C2` (centres unmarked) [Example 362, 3-(3-ethyl-4-oxo-spiro[6,8-dihydro-5H-pyrazolo[4,3-c]azepine-7,4′-tetrahydropyran]-1-yl)butyl benzoate] cannot be ordered by IC50: under 100 nM for the first, under 100 nM for the second.

— patent US10906915B2, “Substituted pyrazoloazepin-4-ones and their use as phosphodiesterase inhibitors” (LEO Pharma A/S, priority 2016, dated 2021)
